Source: the supplement of paper PMC8671470

Columns and labels:
Details in all cases: 72 h
KU-812 = test: cell viability (% survival relative to DMSO control, bortezomib = 0%); higher = less cytotoxic
Outline: (§1)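 Fifteen myeloid leukaemia cell lines (10 AML, 5 CML) were seeded at a density titrated to the linear growth range. They went into 384-well plates with compounds pre-printed at 1, 10, 100, 1000 or 10000 nM in duplicate. After 72 h at 37 °C with 5% CO2, viability was read by CellTiter-Glo luminescence. Values are percent survival, with vehicle set to 100% and a 10 µM positive control to 0%, averaged over the duplicates.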

NOMO-1 = test: as above
Outline: as §1

MOLM-13 = test: as above
Outline: as §1

THP-1 = test: as above
Outline: as §1

[1] = system: myeloid leukemia patient primary cells Pat.10; test: cell viability (% survival relative to DMSO control); higher = less cytotoxic
Outline: (§2)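 Thawed, Ficoll-purified mononuclear cells from AML or CML patients in RPMI 1640 with 10% FBS were seeded at 10,000 cells/well on 384-well plates pre-printed with 70 compounds at five tenfold concentrations, 1–10,000 nM, in duplicate, for 72 h. Viability was read by CellTiter-Glo and normalised to DMSO and 10 μM proteasome-inhibitor wells. Where given, area under the curve came from four-parameter log-logistic fits (drc, PharmacoGx R packages).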

[2] = system: myeloid leukemia patient primary cells Pat.14; test: as above
Outline: as §2

[3] = system: myeloid leukemia patient primary cells Pat.9; test: as above
Outline: as §2

[4] = system: myeloid leukemia patient primary cells Pat.3; test: as above
Outline: as §2

[5] = system: myeloid leukemia patient primary cells Pat.11; test: as above
Outline: as §2

[6] = system: myeloid leukemia patient primary cells Pat.7; test: as above
Outline: as §2

[7] = system: myeloid leukemia patient primary cells Pat.2; test: as above
Outline: as §2

[8] = system: myeloid leukemia patient primary cells Pat.4; test: as above
Outline: as §2

[9] = system: myeloid leukemia patient primary cells Pat.6; test: as above
Outline: as §2

[10] = system: myeloid leukemia patient primary cells Pat.13; test: as above
Outline: as §2

[11] = system: myeloid leukemia patient primary cells Pat.15; test: as above
Outline: as §2

[12] = system: myeloid leukemia patient primary cells Pat.12; test: as above
Outline: as §2

[13] = system: myeloid leukemia patient primary cells Pat.1; test: as above
Outline: as §2

[14] = system: myeloid leukemia patient primary cells Pat.8; test: as above
Outline: as §2

[15] = system: myeloid leukemia patient primary cells Pat.5; test: as above
Outline: as §2

CCCCCCCCCCCCC/C=C/[C@@H](O)[C@H](CO)N(C)C [N,N-Dimethylsphingosine]
cell viability (KU-812; 1 nM): 101% | cell viability (KU-812; 10 nM): 90.5% | cell viability (KU-812; 100 nM): 103% | cell viability (KU-812; 1000 nM): 102% | cell viability (KU-812; 10000 nM): 55% | cell viability (NOMO-1; 1 nM): 92% | cell viability (NOMO-1; 10 nM): 101% | cell viability (NOMO-1; 100 nM): 100% | cell viability (NOMO-1; 1000 nM): 94.1% | cell viability (NOMO-1; 10000 nM): 85.8% | cell viability (MOLM-13; 1 nM): 97.3% | cell viability (MOLM-13; 10 nM): 96.5% | cell viability (MOLM-13; 100 nM): 86.2% | cell viability (MOLM-13; 1000 nM): 104% | cell viability (MOLM-13; 10000 nM): 71.1% | cell viability (THP-1; 1 nM): 97.5% | cell viability (THP-1; 10 nM): 100% | cell viability (THP-1; 100 nM): 105% | cell viability (THP-1; 1000 nM): 89.7% | cell viability (THP-1; 10000 nM): 61.7% | cell viability ([1]; 1 nM): 79.3% | cell viability ([1]; 10 nM): 74.6% | cell viability ([1]; 100 nM): 39.9% | cell viability ([1]; 1000 nM): 22.9% | cell viability ([1]; 10000 nM): < 0% | cell viability ([2]; 1 nM): 97.9% | cell viability ([2]; 10 nM): 85% | cell viability ([2]; 100 nM): 57.8% | cell viability ([2]; 1000 nM): 47.9% | cell viability ([2]; 10000 nM): 2.81% | cell viability ([3]; 1 nM): 68.4% | cell viability ([3]; 10 nM): 77.7% | cell viability ([3]; 100 nM): 25.2% | cell viability ([3]; 1000 nM): 21.6% | cell viability ([3]; 10000 nM): < 0% | cell viability ([4]; 1 nM): 57.4% | cell viability ([4]; 10 nM): 87.2% | cell viability ([4]; 100 nM): 60% | cell viability ([4]; 1000 nM): 17.4% | cell viability ([4]; 10000 nM): 0.177% | cell viability ([5]; 1 nM): 94.6% | cell viability ([5]; 10 nM): > 100% | cell viability ([5]; 100 nM): 94.1% | cell viability ([5]; 1000 nM): 93.3% | cell viability ([5]; 10000 nM): 19.4% | cell viability ([6]; 1 nM): 90.6% | cell viability ([6]; 10 nM): 65.6% | cell viability ([6]; 100 nM): 86.3% | cell viability ([6]; 1000 nM): 11.6% | cell viability ([6]; 10000 nM): < 0% | cell viability ([7]; 1 nM): 91.4% | cell viability ([7]; 10 nM): 96.1% | cell viability ([7]; 100 nM): 88.2% | cell viability ([7]; 1000 nM): 92.4% | cell viability ([7]; 10000 nM): 3.22% | cell viability ([8]; 1 nM): 98.5% | cell viability ([8]; 10 nM): 80.5% | cell viability ([8]; 100 nM): 78.5% | cell viability ([8]; 1000 nM): 74% | cell viability ([8]; 10000 nM): 5.51% | cell viability ([9]; 1 nM): > 100% | cell viability ([9]; 10 nM): 99.3% | cell viability ([9]; 100 nM): 76.5% | cell viability ([9]; 1000 nM): 83.7% | cell viability ([9]; 10000 nM): 0.544% | cell viability ([10]; 1 nM): 94.6% | cell viability ([10]; 10 nM): 86.2% | cell viability ([10]; 100 nM): 71.2% | cell viability ([10]; 1000 nM): 85.7% | cell viability ([10]; 10000 nM): 0.263% | cell viability ([11]; 1 nM): 93.8% | cell viability ([11]; 10 nM): 95.6% | cell viability ([11]; 100 nM): 78.6% | cell viability ([11]; 1000 nM): 85.5% | cell viability ([11]; 10000 nM): 10.4% | cell viability ([12]; 1 nM): 100% | cell viability ([12]; 10 nM): 84.6% | cell viability ([12]; 100 nM): 94.2% | cell viability ([12]; 1000 nM): 84.6% | cell viability ([12]; 10000 nM): 42.2% | cell viability ([13]; 1 nM): > 100% | cell viability ([13]; 10 nM): 92.6% | cell viability ([13]; 100 nM): 79.6% | cell viability ([13]; 1000 nM): 74.3% | cell viability ([13]; 10000 nM): 56.2% | cell viability ([14]; 1 nM): 71.9% | cell viability ([14]; 10 nM): 86.8% | cell viability ([14]; 100 nM): 69% | cell viability ([14]; 1000 nM): 92.9% | cell viability ([14]; 10000 nM): 0.0301% | cell viability ([15]; 1 nM): 75.5% | cell viability ([15]; 10 nM): 57.6% | cell viability ([15]; 100 nM): 10.1% | cell viability ([15]; 1000 nM): 2.01% | cell viability ([15]; 10000 nM): 0.265%
